Experimental data as given in US8030033B2, “Polymorphisms in ABCB1 associated with a lack of clinical response to medicaments” (priority 2004, dated 2011).

Tests used:
[1] = system: p-glycoprotein (ABCB1 protein); conditions: cited from earlier work; for uptake / penetration into the brain of mice dependent on ABCB1 protein: mice with abcb1ab knockout mutation, cited literature; for substrate of p-glycoprotein: from cited literature
[2] = system: p-glycoprotein (abcb1a and abcb1b); assay: Drug concentrations in cerebrum and plasma of abcb1ab (-/-) mice compared to wild-type controls after 11 day subcutaneous administration; conditions: for differences in plasma levels between abcb1ab (-/-) mutant and wildtype littermates: 11 day continuous sub-cutaneous administration; for fold higher concentration in the brain of abcb1ab (-/-) mutant compared to wildtype animals (cerebrum/plasma ratio): 11 day continuous sub-cutaneous administration via osmotic pumps, male mice; for intracerebral concentration regulated by p-glycoprotein: administration for 11 days, mice lacking abcb1a and abcb1b
Method: Venlafaxine and o-desmethylvenlafaxine (d-venlafaxine) was obtained from Wyeth-Pharma GmbH (Münster, Germany). […] Protriptyline was purchased from RBI (Massachusetts, USA). All other chemicals were obtained in the purest grade available from Merck (Darmstadt, Germany).
Male abcb1ab(−/−) mice and FVB/N wildtype mice were housed individually and maintained on a 12:12 h light/dark cycle (lights on at 07:00), with food and water ad libitum. Abcb1ab double knockout mice, originally created by A. Schinkel by sequential gene targeting in 129/Ola E14 embryonic stem cells^28 and backcrossed seven times (N7) to FVB/N from the C57BL/6×129 chimera, and FVB/N wildtype mice were received from Taconic (Germantown, USA; FVB/Tac-[KO]Pgy2 N7). A homozygous colony is maintained at the Max-Planck Institute of Psychiatry on the N7 FVB/N background through intercrossing of homozygous mice.
Experimental and extraction procedures were performed as described before^12,26. […] After 11 days, the mice were anesthetized and sacrificed. The dissected organs were homogenized and a liquid-liquid extraction procedure has been carried out with n-hexan/isoamylalcohol (Table 3) in the first step and phosphoric acid in the second.
HPLC measurements were performed as described before^12,26. A Beckman gradient pump, autoinjector, UV detector and a Merck fluorescence detector, were used for the high-performance liquid chromatography analysis. Separations were made on a reversed phase Luna 5μ C18(2) 250×4.6 mm column (Phenomenex, Torrance, USA), 60° C., mobile phase flow 1 ml/min. A mobile phase gradient with acetonitrile was used for the chromatography analysis (Table 3). The substances were determined by UV absorption and fluorescence at the described wavelength (Table 3).
Statistical analysis was carried out the statistic software SPSS 10.0 for windows (Chicago, Ill.). Significance was tested by one-factorial multivariate analyses of variance (MANOVAs). […] As a nominal level of significance α=0.05 was accepted and corrected (reduced according to the Bonferroni procedure) for all a posteriori tests (univariate F-tests) in order to keep the type I error less than or equal to 0.05.

[3] = Plasma concentration of antidepressant drugs in depressed patients according to rs2235015 genotype; type: in vivo, human; conditions: weeks 4-6 of treatment; rs2235015 GG homozygotes; SEM=51.6
Method: All patients were treated with antidepressant drugs within a few days of admission. The type antidepressant medication was not influence by the participation in the study, but chosen freely by the responsible psychiatrist. For all patients plasma concentration of antidepressant medication was monitored to assure clinically efficient drug levels.
Plasma citalopram, mirtazapine, and paroxetine were extracted with a liquid-liquid extraction procedure and than measured after HPLC with UV absorption and fluorescence.
We used a reversed phase Luna 5μ C18(2) 250×4.6 mm column (Phenomenex, Torrance, USA), 60° C., mobile phase flow 1 ml/min. […] The extraction recovery was >90%, and the intra and inter day variation coefficient was <10%.
To detect any genotype dependent differences in antidepressant dose or plasma level, we used a one-way ANOVA with the genotype of rs2235015 as factor.

SMILES | uptake / penetration into the brain of mice dependent on ABCB1 protein [1] | substrate of p-glycoprotein [1] | further results
CN(C)CCC=C1c2ccccc2COc2ccccc21 [doxepin] | enhancement of penetration |  | 
CC(CN(C)C)CN1c2ccccc2CCc2ccccc21 (stereo not shown) [trimipramine] | involved in the uptake |  | 
Fc1ccc([C@@H]2CCNC[C@H]2COc2ccc3c(c2)OCO3)cc1 [paroxetine] | enhancement of penetration | identified as a substrate of p-glycoprotein | 
CN(C)CC(c1ccc(O)cc1)C1(O)CCCCC1 (stereo not drawn) [d-venlafaxine, o-desmethylvenlafaxine] |  |  | differences in plasma levels between abcb1ab (-/-) mutant and wildtype littermates [2]: no differences; fold higher concentration in the brain of abcb1ab (-/-) mutant compared to wildtype animals (cerebrum/plasma ratio) [2]: 4.1 fold; intracerebral concentration regulated by p-glycoprotein [2]: regulated by p-glycoprotein
CN1CCN2c3ncccc3Cc3ccccc3C2C1 (stereo not shown) [mirtazapine] |  |  | differences in cerebrum/plasma ratios between abcb1ab (-/-) mutant and wildtype ([2]; mouse, in vivo): no significant differences
CNCCC(Oc1ccc(C(F)(F)F)cc1)c1ccccc1 (stereo not shown) [fluoxetine] |  | not substrate of p-glycoprotein | 
CN(C)CCCC1(c2ccc(F)cc2)OCc2cc(C#N)ccc21 (stereo not shown) [citalopram] | involved in the uptake |  | 
CNCCC=C1c2ccccc2CCc2ccccc21 [nortriptyline] |  | substrate of p-glycoprotein | 
COc1ccc(C(CN(C)C)C2(O)CCCCC2)cc1 (stereo not shown) [venlafaxine] | enhancement of penetration |  | differences in plasma levels between abcb1ab (-/-) mutant and wildtype littermates [2]: no differences; fold higher concentration in the brain of abcb1ab (-/-) mutant compared to wildtype animals (cerebrum/plasma ratio) [2]: 1.7 fold; intracerebral concentration regulated by p-glycoprotein [2]: regulated by p-glycoprotein; mean plasma level of administered antidepressant [3]: 356.5 ng/mL
